Blank lines part the entries; values can stand above or below the molecule they belong to.
Tests used:
[1] = biological target: human factor Xa (Homo sapiens, UniProt P00742); experiment: Chromogenic factor Xa inhibition assay in plasma samples pretreated with oxidizing agent (sodium hypochlorite) and neutralizing agent (HCl); format: biochemical; settings: for ΔA/min (conversion of chromogenic factor Xa substrate): plasma without inhibitor 2268
Method: (§1) Various amounts of direct coagulation factor inhibitors (rivaroxaban as direct factor Xa inhibitor, argatroban as direct thrombin inhibitor) or indirect coagulation factor inhibitors (fondaparinux pentasaccharide [Arixtra®], high-molecular-weight heparin [HMWH]) were added to normal human plasma.
(§2) 20 μl of plasma sample were mixed with 10 μl of a 0.1% strength hypochlorous acid (sodium hypochlorite) as oxidizing agent, and the reaction mix was incubated at +37° C. for 30 seconds. Subsequently, 10 μl of a 0.1% strength hydrochloric acid solution were added to the reaction mix to neutralize the oxidizing agent, and the reaction mix was incubated at +37° C. for 30 seconds. Subsequently, 95 μl of factor Xa reagent (human factor Xa, 1 U/ml in TRIS buffer, pH 8.0) were added to the reaction mix, and the reaction mix was incubated at +37° C. for 30 seconds. Subsequently, 80 μl of a chromogenic factor Xa substrate (Z-D-Leu-Gly-Arg-ANBA-methylamide, 4 mmol/l) were added to the reaction mix, and conversion of the substrate (in ΔA/time) was determined at a wavelength of 405 nm in an automated coagulation measurement instrument (BCS® System, Siemens Healthcare Diagnostics).
(§3) The reduction in substrate conversion compared to plasma without any inhibitors correlates with the amount of inhibitor in the sample.

[2] = biological target: bovine thrombin (Bos taurus, UniProt P00735); experiment: Chromogenic thrombin inhibition assay in plasma samples pretreated with oxidizing agent (sodium hypochlorite) and neutralizing agent (HCl); format: biochemical; settings: for ΔA/min (conversion of chromogenic thrombin substrate): plasma without inhibitor 2623
Method: as §1
as §2, with “140” for “95”, “thrombin” for “factor Xa”, “(bovine thrombin, 6 U/ml)” for “(human factor Xa, 1 U/ml in TRIS buffer, pH 8.0)”, “50” for “80”, “(Tos-L-Gly-Pro-Arg-ANBA-isopropylamide,” for “(Z-D-Leu-Gly-Arg-ANBA-methylamide,”
as §3

[3] = 20 μg/ml in normal human plasma, pretreated sample
[4] = plasma samples containing the substance
[5] = 200 μg/ml in normal human plasma, pretreated sample
[6] = pretreatment with hypochlorite then HCl
[7] = 200 ng/ml in normal human plasma, pretreated sample

Chain of human factor Xa (P00742 235-488 limits assumed): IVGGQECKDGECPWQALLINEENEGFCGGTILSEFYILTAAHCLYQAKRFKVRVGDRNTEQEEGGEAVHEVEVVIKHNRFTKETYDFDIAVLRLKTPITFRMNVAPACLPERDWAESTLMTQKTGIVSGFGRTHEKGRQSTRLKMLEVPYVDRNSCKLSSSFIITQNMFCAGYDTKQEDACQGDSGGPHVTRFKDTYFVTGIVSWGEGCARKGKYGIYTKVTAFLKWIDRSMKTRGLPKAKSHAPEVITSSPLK
Chain of human factor Xa (P00742 41-179 partner limits assumed): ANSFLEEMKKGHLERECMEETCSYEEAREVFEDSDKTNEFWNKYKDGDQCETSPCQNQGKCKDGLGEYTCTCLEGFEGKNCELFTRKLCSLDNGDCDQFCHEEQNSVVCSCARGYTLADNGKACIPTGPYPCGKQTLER

- inhibition at 1 µg/mL ([1]; 1 μg/ml in normal human plasma, pretreated sample, read-out: FXa inhibition): 4%
- inhibition at 4 µg/mL ([1]; 4 μg/ml in normal human plasma, pretreated sample, read-out: FXa inhibition): 3%
- inhibition at 1 µg/mL ([2]; 1 μg/ml in normal human plasma, pretreated sample): 5%
- inhibition at 4 µg/mL ([2]; 4 μg/ml in normal human plasma, pretreated sample): 2%
SMILES: CO[C@H]1O[C@H](COS(=O)(=O)O)[C@@H](O[C@@H]2O[C@@H](C(=O)O)[C@@H](O[C@H]3O[C@H](COS(=O)(=O)O)[C@@H](O[C@@H]4O[C@H](C(=O)O)[C@@H](O[C@H]5O[C@H](COS(=O)(=O)O)[C@@H](O)[C@H](O)[C@H]5NS(=O)(=O)O)[C@H](O)[C@H]4O)[C@H](OS(=O)(=O)O)[C@H]3NS(=O)(=O)O)[C@H](O)[C@H]2OS(=O)(=O)O)[C@H](O)[C@H]1NS(=O)(=O)O [Arixtra, fondaparinux]

- ΔA/min (conversion of chromogenic factor Xa substrate) [1, 3]: 2176 ΔA/min
- inhibition at 20 µg/mL ([1]; 20 μg/ml in normal human plasma, pretreated sample, read-out: FXa inhibition): 4%
- factor Xa inhibition (in words) [1, 4]: factor Xa inhibition does not take place
- inhibition at 20 µg/mL [2, 3]: 95%
- ΔA/min (conversion of chromogenic thrombin substrate) [2, 3]: 140 ΔA/min
- inhibition at 200 µg/mL [2, 5]: 99%
- ΔA/min (conversion of chromogenic thrombin substrate) [2, 5]: 36 ΔA/min
- effect of pretreatment of the samples on the inhibition of thrombin by the substance (in words) [2, 6]: not impaired
SMILES: CC1CNc2c(cccc2S(=O)(=O)N[C@@H](CCCNC(=N)N)C(=O)N2CC[C@@H](C)C[C@@H]2C(=O)O)C1 (stereo partly drawn) [argatroban]

- ΔA/min (conversion of chromogenic factor Xa substrate) [1, 7]: 1296 ΔA/min
- inhibition at 0.2 µg/mL ([1]; 200 ng/ml in normal human plasma, pretreated sample, read-out: FXa inhibition): 43%
- effect of pretreatment of the samples on the inhibition of factor Xa by the substance (in words) [1, 6]: not impaired
- inhibition at 0.2 µg/mL [2, 7]: 0%
- ΔA/min (conversion of chromogenic thrombin substrate) [2, 7]: 2612 ΔA/min
- thrombin inhibition (in words) [2, 4]: thrombin inhibition does not take place
SMILES: O=C(NC[C@H]1CN(c2ccc(N3CCOCC3=O)cc2)C(=O)O1)c1ccc(Cl)s1 [rivaroxaban]

Reference: patent US8685636B2, “Heparin-insensitive method for determining direct coagulation factor inhibitors” (Siemens Healthcare Diagnostics Products GmbH, priority 2011, dated 2014)
